Results from paper PMC6718442, “11β-Hydroxysteroid dehydrogenases control access of 7β,27-dihydroxycholesterol to retinoid-related orphan receptor γ” (Journal of Lipid Research, 2019).

Legend:
human 11β-HSD1 = target: T1, human 11β-HSD1 (Homo sapiens, UniProt P28845); assay: 11β-HSD1 enzyme kinetics (apparent KM and Vmax) in microsomes; type: biochemical
T1 construct: expressed in transfected cells
Protocol: Microsomes were prepared as described earlier with minor modifications ([38]). Briefly, HEK-293 cells stably expressing human 11β-HSD1 and H6PDH were cultured until they reached confluence. Then, they were washed with ice-cold PBS and resuspended to a final concentration of ∼2 × 10^7 cells/ml in ice-cold buffer A [50 mM Tris (pH 7.5), 1 mM EDTA, 100 mM NaCl]. Typically, 6 ml of this suspension were prepared, corresponding to 1.2 × 10^8 cells. Following homogenization with 20 strokes in a glass potter on ice, the preparation was sonicated and centrifuged (9.000 g, 4°C for 30 min). The supernatant was removed and subjected to ultracentrifugation at 105,000 g, 4°C for 70 min. The obtained pellet was resuspended in buffer B [20 mM Tris (pH 7.5), 1 mM EDTA, 10% glycerol] and the ultracentrifugation step repeated. The microsomal fraction was again resuspended in buffer B and the total protein concentration determined using BCA assay ([39]). The microsomes were immediately frozen on dry ice and stored at −80°C.
Microsomes (1–20 μg) expressing 11β-HSD1 and H6PDH were incubated for 20 min with 1 mM of NADPH, 2 mM of glucose-6-phosphate, 0.1 units of glucose-6-phosphate dehydrogenase (from Saccharomyces cerevisiae), and different concentrations (62.5–2,000 nM) of 7k27OHC, adapted to a total assay volume of 50 μl with TS2 buffer [100 mM NaCl, 1 mM EGTA, 1 mM EDTA, 1 mM MgCl2, 250 mM sucrose, 20 mM Tris/HCl (pH 7.4)]. Oxysterols were extracted by mixing the samples with ice-cold ethyl acetate containing 100 nM deuterium-labeled 7β27OHC as internal standard and 1.5% (v/v) BHT/TPP solution as antioxidant. […] After reconstitution in 50 μl of methanol:ultra-pure water (1:1, v/v), the samples were centrifuged (4°C, 16,000 g for 10 min) and analyzed by UHPLC-MS/MS.
The substrate conversion was kept below 30% in all reactions. Apparent kinetic parameters (KM and Vmax) were determined by nonlinear regression and under the assumption of Michaelis-Menten kinetics. […]

[1] = target: T2, mineralocorticoid receptor (MR) (Homo sapiens, UniProt P80365); assay: Mineralocorticoid receptor reporter gene assay in HEK-293 cells stably expressing 11β-HSD2; type: cell-based; settings: without cortisol, data not shown
T2 sequence (P80365 1-405): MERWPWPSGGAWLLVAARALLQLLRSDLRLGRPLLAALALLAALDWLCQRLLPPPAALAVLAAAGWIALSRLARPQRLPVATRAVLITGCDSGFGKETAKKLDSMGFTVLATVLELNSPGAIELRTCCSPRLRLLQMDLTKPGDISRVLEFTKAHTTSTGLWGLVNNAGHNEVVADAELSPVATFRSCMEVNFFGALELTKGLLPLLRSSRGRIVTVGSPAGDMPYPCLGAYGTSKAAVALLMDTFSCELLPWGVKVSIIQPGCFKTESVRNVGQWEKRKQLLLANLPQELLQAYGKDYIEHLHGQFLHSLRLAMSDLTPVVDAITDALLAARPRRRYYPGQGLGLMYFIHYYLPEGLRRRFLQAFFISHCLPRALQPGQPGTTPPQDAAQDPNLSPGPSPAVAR
T2 sequence (P08235 1-984 partner): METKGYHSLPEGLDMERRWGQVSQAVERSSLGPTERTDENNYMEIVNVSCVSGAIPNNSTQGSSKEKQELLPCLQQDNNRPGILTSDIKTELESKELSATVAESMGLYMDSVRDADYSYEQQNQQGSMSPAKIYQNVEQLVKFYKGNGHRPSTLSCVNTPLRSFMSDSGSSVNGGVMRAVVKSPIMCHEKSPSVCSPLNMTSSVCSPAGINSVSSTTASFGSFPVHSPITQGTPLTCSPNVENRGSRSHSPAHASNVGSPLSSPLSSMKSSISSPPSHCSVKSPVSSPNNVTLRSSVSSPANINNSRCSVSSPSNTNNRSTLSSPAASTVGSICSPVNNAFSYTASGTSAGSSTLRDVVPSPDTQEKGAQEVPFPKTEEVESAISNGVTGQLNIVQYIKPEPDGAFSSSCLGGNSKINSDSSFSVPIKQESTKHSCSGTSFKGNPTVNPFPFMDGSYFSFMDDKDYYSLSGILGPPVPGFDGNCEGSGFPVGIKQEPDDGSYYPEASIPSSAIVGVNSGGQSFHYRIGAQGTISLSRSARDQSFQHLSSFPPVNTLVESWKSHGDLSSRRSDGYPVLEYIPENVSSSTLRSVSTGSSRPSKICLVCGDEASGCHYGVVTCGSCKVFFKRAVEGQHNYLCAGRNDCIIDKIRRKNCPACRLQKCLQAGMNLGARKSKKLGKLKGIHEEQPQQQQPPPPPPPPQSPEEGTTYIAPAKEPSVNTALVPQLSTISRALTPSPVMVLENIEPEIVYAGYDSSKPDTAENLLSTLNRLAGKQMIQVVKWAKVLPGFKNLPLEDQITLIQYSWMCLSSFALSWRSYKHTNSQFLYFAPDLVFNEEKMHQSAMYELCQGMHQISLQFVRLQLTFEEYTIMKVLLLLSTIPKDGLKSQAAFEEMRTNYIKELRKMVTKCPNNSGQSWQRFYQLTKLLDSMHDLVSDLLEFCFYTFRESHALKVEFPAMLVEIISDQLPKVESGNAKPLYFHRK
Protocol: Then, the cells were transiently transfected with the mineralocorticoid receptor (MR) (300 ng/well), a [NT] luciferase reporter (450 ng/well), and a pCMV-lacZ β-galactosidase transfection control (25 ng/well) using the calcium phosphate precipitation method. At 6 h post-transfection, the cells were washed with DMEM and incubated for another 18 h before replacing the medium with cDMEM. The cells were cultured for another 2 h at 37°C. […] The cells were lysed with Tropix lysis solution (Applied Biosystems, Foster City, CA) containing 0.5 mM of dithiothreitol and frozen at -80°C for at least 20 min.

mouse 11β-hsd1 = target: T3, mouse 11β-hsd1 (Mus musculus, UniProt P50172); assay: Conversion of 7k27OHC by mouse 11β-hsd1 (data not shown)
T3 construct: expressed in transfected cells; host or cells: HEK-293

11β-HSD2 = target: T4, 11β-HSD2 (Homo sapiens, UniProt P80365); assay: 11β-HSD2 enzyme kinetics (apparent KM and Vmax) in HEK-293 cell lysate; type: biochemical
T4 construct: expressed in transfected cells
T4 sequence (P80365 1-405): T2 sequence (P80365 1-405)
Protocol: For 11β-HSD2 activity measurements, 0.8 μg of HEK-293 cell lysate stably expressing 11β-HSD2 was incubated with different concentrations (50–800 nM) of 7β27OHC and 500 μM of NAD^+ for 10–30 min. Oxysterols were extracted as described in the 11β-HSD-dependent metabolism of 7-oxygenated 27OHCs in intact cells section.
The substrate conversion was kept below 30% in all reactions. Apparent kinetic parameters (KM and Vmax) were determined by nonlinear regression and under the assumption of Michaelis-Menten kinetics. Data (mean ± SD) were obtained from three independent experiments.

[2] = oxoreduction of substrate by 11β-HSD1, microsomes
[3] = oxidation of substrate by 11β-HSD2, cell lysate

T1 sequence (P28845 whole entry): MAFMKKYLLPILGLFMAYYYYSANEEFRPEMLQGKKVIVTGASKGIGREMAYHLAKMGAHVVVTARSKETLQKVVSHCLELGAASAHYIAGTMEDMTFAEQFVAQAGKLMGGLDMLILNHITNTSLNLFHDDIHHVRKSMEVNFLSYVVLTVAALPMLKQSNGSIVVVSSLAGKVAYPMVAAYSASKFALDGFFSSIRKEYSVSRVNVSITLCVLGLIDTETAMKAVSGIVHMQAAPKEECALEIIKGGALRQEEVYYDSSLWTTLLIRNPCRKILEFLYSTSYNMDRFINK
T3 sequence (P50172 whole entry): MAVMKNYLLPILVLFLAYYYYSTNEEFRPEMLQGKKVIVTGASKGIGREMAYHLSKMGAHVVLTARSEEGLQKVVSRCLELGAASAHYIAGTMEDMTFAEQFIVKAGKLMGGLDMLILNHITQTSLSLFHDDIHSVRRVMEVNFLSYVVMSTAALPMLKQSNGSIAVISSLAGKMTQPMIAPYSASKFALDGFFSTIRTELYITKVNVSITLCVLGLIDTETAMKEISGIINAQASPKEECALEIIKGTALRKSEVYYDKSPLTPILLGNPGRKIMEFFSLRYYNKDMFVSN

SMILES | KMapp (human 11β-HSD1; [2]) [nM] | Vmax app (human 11β-HSD1; [2]) | Affinity of 11β-HSD1, times higher than for other endogenous substrates (human 11β-HSD1; versus cortisone, 11-DHC, 7kC, 7oxoLCA) | Stimulation of MR activity by the substance itself (in words) [1] | Conversion by mouse 11β-hsd1 (in words) (mouse 11β-hsd1) | KMapp (11β-HSD2; [3]) [nM] | Vmax app (11β-HSD2; [3]) | Substrate affinity of 11β-HSD2, times higher than for cortisol (11β-HSD2; versus cortisol KMapp ∼200 nM) [times]
CC(CO)CCC[C@@H](C)[C@H]1CC[C@H]2[C@@H]3C(=O)C=C4C[C@@H](O)CC[C@]4(C)[C@H]3CC[C@]12C (stereo partly drawn) [7k27OHC, 7-keto,27-hydroxycholesterol] | 39 ± 12 | 4.3 ± 0.2 nmol·h^−1·mg total protein^−1 | 6-25 times | neither 7β27OHC nor 7k27OHC was able to stimulate MR activity by itself | exclusive conversion of 7k27OHC to 7β27OHC without the formation 7α27OHC | – | – | –
CC(CO)CCC[C@@H](C)[C@H]1CC[C@H]2[C@@H]3[C@@H](O)C=C4C[C@@H](O)CC[C@]4(C)[C@H]3CC[C@]12C (stereo partly drawn) [7β27OHC, 7β,27-dihydroxycholesterol] | – | – | – | neither 7β27OHC nor 7k27OHC was able to stimulate MR activity by itself | – | 56 ± 11 | 10 ± 0.4 nmol·h^−1·mg total protein^−1 | ~4
